Data taken from the supplement of paper PMC11665569.
± gives the standard deviation of the averaged measurements.

What was measured:
Conditions in all cases: treatment time: 5 days
H1792 = system: H1792
Description: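 CCK-8 viability of KRAS G12C-mutant cancer cell lines transfected with control, YAP/TAZ or TEAD1-4 siRNAs and treated with KRAS G12C inhibitors for 5 days; IC50 fitted in Prism after normalising absorbance at 450 nm to vehicle control.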

H2030 = test: relative viability (fraction of vehicle control); higher = more viable / less inhibited
Description: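 CCK-8 viability of H2030 cells transfected with control, YAP/TAZ or TEAD1-4 siRNAs and treated with KRAS G12C inhibitors for 5 days. Values are normalised to vehicle control.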

SW1573 = test: as above
Description: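 CCK-8 viability of SW1573 cells transfected with control, YAP/TAZ or TEAD1-4 siRNAs and treated with KRAS G12C inhibitors for 5 days. Values are normalised to vehicle control.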

C=C(F)C(=O)N1CCN(c2nc(OC[C@@H]3CCCN3C)nc3c2CCN(c2cccc4cccc(Cl)c24)C3)C[C@@H]1CC#N [MRTX849]
Conditions | IC50 (cell viability, 5 days), H1792 [µM] | relative viability, H2030 | relative viability, SW1573
log10 concentration (uM): 0, siRNA knockdown: TEAD1-4 siRNA 1 | – | 0.333 ± 0.042 | 0.154 ± 0.02
log10 concentration (uM): 0, siRNA knockdown: TEAD1-4 siRNA 2 | – | 0.289 ± 0.033 | 0.307 ± 0.062
log10 concentration (uM): 0, siRNA knockdown: YAP/TAZ siRNA 1 | – | 0.531 ± 0.042 | 0.0935 ± 0.015
log10 concentration (uM): 0, siRNA knockdown: YAP/TAZ siRNA 2 | – | 0.441 ± 0.099 | 0.0411 ± 0.0087
log10 concentration (uM): 0, siRNA knockdown: negative control siRNA | – | 0.768 ± 0.29 | 0.426 ± 0.091
log10 concentration (uM): 0.69897, siRNA knockdown: TEAD1-4 siRNA 1 | – | 0.0176 ± 0.0044 | 0.0234 ± 0.0063
log10 concentration (uM): 0.69897, siRNA knockdown: TEAD1-4 siRNA 2 | – | 0.0364 | 0.127 ± 0.03
log10 concentration (uM): 0.69897, siRNA knockdown: YAP/TAZ siRNA 1 | – | 0.0187 ± 0.0039 | 0.00636 ± 0.0042
log10 concentration (uM): 0.69897, siRNA knockdown: YAP/TAZ siRNA 2 | – | 0.0145 ± 0.0049 | 0.00791 ± 0.0041
log10 concentration (uM): 0.69897, siRNA knockdown: negative control siRNA | – | 0.162 ± 0.12 | 0.00854 ± 0.0029
log10 concentration (uM): -0.30103, siRNA knockdown: TEAD1-4 siRNA 1 | – | 0.413 ± 0.04 | 0.173 ± 0.015
log10 concentration (uM): -0.30103, siRNA knockdown: TEAD1-4 siRNA 2 | – | 0.358 ± 0.016 | 0.246 ± 0.02
log10 concentration (uM): -0.30103, siRNA knockdown: YAP/TAZ siRNA 1 | – | 0.458 ± 0.14 | 0.141 ± 0.007
log10 concentration (uM): -0.30103, siRNA knockdown: YAP/TAZ siRNA 2 | – | 0.496 ± 0.066 | 0.0897 ± 0.0099
log10 concentration (uM): -0.30103, siRNA knockdown: negative control siRNA | – | 0.814 ± 0.24 | 0.66 ± 0.035
log10 concentration (uM): -1, siRNA knockdown: TEAD1-4 siRNA 1 | – | 0.468 ± 0.053 | 0.244 ± 0.026
log10 concentration (uM): -1, siRNA knockdown: TEAD1-4 siRNA 2 | – | 0.437 ± 0.055 | 0.263 ± 0.053
log10 concentration (uM): -1, siRNA knockdown: YAP/TAZ siRNA 1 | – | 0.409 ± 0.25 | 0.154 ± 0.034
log10 concentration (uM): -1, siRNA knockdown: YAP/TAZ siRNA 2 | – | 0.238 ± 0.3 | 0.0905 ± 0.0041
log10 concentration (uM): -1, siRNA knockdown: negative control siRNA | – | 0.814 ± 0.23 | 0.726 ± 0.012
log10 concentration (uM): -1.30103, siRNA knockdown: TEAD1-4 siRNA 1 | – | 0.473 ± 0.06 | 0.262 ± 0.049
log10 concentration (uM): -1.30103, siRNA knockdown: TEAD1-4 siRNA 2 | – | 0.428 ± 0.039 | 0.289 ± 0.026
log10 concentration (uM): -1.30103, siRNA knockdown: YAP/TAZ siRNA 1 | – | 0.625 ± 0.072 | 0.161 ± 0.0043
log10 concentration (uM): -1.30103, siRNA knockdown: YAP/TAZ siRNA 2 | – | 0.322 ± 0.18 | 0.108 ± 0.014
log10 concentration (uM): -1.30103, siRNA knockdown: negative control siRNA | – | 0.795 ± 0.24 | 0.751 ± 0.028
log10 concentration (uM): -2, siRNA knockdown: TEAD1-4 siRNA 1 | – | 0.676 ± 0.085 | 0.463 ± 0.022
log10 concentration (uM): -2, siRNA knockdown: TEAD1-4 siRNA 2 | – | 0.707 ± 0.1 | 0.452 ± 0.075
log10 concentration (uM): -2, siRNA knockdown: YAP/TAZ siRNA 1 | – | 0.901 ± 0.071 | 0.23 ± 0.018
log10 concentration (uM): -2, siRNA knockdown: YAP/TAZ siRNA 2 | – | 0.521 ± 0.31 | 0.181 ± 0.0047
log10 concentration (uM): -2, siRNA knockdown: negative control siRNA | – | 0.836 ± 0.2 | 0.847 ± 0.029
log10 concentration (uM): -2.30103, siRNA knockdown: TEAD1-4 siRNA 1 | – | 0.774 ± 0.058 | 0.552 ± 0.046
log10 concentration (uM): -2.30103, siRNA knockdown: TEAD1-4 siRNA 2 | – | 0.625 ± 0.058 | 0.5 ± 0.073
log10 concentration (uM): -2.30103, siRNA knockdown: YAP/TAZ siRNA 1 | – | 0.958 ± 0.073 | 0.345 ± 0.022
log10 concentration (uM): -2.30103, siRNA knockdown: YAP/TAZ siRNA 2 | – | 0.707 ± 0.14 | 0.308 ± 0.012
log10 concentration (uM): -2.30103, siRNA knockdown: negative control siRNA | – | 0.836 ± 0.19 | 0.915 ± 0.043
log10 concentration (uM): -3, siRNA knockdown: TEAD1-4 siRNA 1 | – | 1.02 ± 0.028 | 0.913 ± 0.026
log10 concentration (uM): -3, siRNA knockdown: TEAD1-4 siRNA 2 | – | 0.844 ± 0.084 | 0.702 ± 0.093
log10 concentration (uM): -3, siRNA knockdown: YAP/TAZ siRNA 1 | – | 1.07 ± 0.071 | 0.582 ± 0.034
log10 concentration (uM): -3, siRNA knockdown: YAP/TAZ siRNA 2 | – | 0.756 ± 0.18 | 0.531 ± 0.012
log10 concentration (uM): -3, siRNA knockdown: negative control siRNA | – | 0.909 ± 0.11 | 0.978 ± 0.08
log10 concentration (uM): -4, siRNA knockdown: TEAD1-4 siRNA 1 | – | 1.14 ± 0.055 | 0.988 ± 0.081
log10 concentration (uM): -4, siRNA knockdown: TEAD1-4 siRNA 2 | – | 0.984 ± 0.074 | 0.877 ± 0.072
log10 concentration (uM): -4, siRNA knockdown: YAP/TAZ siRNA 1 | – | 1.17 ± 0.027 | 0.915 ± 0.038
log10 concentration (uM): -4, siRNA knockdown: YAP/TAZ siRNA 2 | – | 0.911 ± 0.17 | 0.845 ± 0.056
log10 concentration (uM): -4, siRNA knockdown: negative control siRNA | – | 0.97 ± 0.048 | 0.997 ± 0.053
siRNA knockdown (Con = control): Con | 0.304 | – | –
siRNA knockdown (Con = control): YAP_WWTR1_si1 | 0.055 | – | –
siRNA knockdown (Con = control): YAP_WWTR1_si2 | 0.0456 | – | –
